In US20080076711A1, “Therapeutic agents for osteopenia” (Chugai Seiyaku Kabushiki Kaisha, priority 2001, published 2008):

How the values were obtained:
Type in all cases: in vivo, mouse
[1] = tested on: OPN knockout (OPN-KO) mice; experiment: Determination of cancellous bone mass (BV/TV) after PTH treatment, OPN-KO mice; conditions: PTH(+) group, 80 μg/kg s.c., 4 weeks, five days a week, mean ± standard error
Experimental: Sagittal sections were prepared from the metaphyseal region of femur and tomographed using an X-ray microtomograph Musashi (Nittetsu-ELEX, Osaka, Japan). A Luzex-F automated Image analysis system (Nireco, Tokyo, Japan) was then used for analysis of the image data from a 1.47 mm^2 square area (0.7 mm×2.1 mm) located 0.2 mm apart from the growth plate of the distal end of femur to obtain BV/TV values.
BV/TV (bone volume/total tissue volume) denotes the unit bone mass (%), i.e., the percentage of the total trabecular volume in the total tissue volume. Namely, an increase in BV/TV means an increase in calcified bone.
(§1) To create an animal model in which the in vivo effects of OPN were inhibited, strain 129 female mice at 7 weeks of age were modified into knockout mice deficient in the OPN gene (OPN-KO mice), as described in Rittling et al. J. Bone Miner. Res., 13: 1101-1111, 1998. These mice were singly used for PTH treatment test. They were divided into groups of 6 mice each.
(§2) Recombinant human PTH(1-34) (Bachem, Torrance, Calif.) was dissolved in acidified physiological saline supplemented with 0.1% bovine serum albumin (Sigma Chemical Co.-Aldrich, St. Louis, Mo.). The OPN-KO mice were subcutaneously administered with 80 μg/kg of body weight human PTH(1-34) for 4 weeks on a five-days-a-week basis. Mice in the control group were administered with physiological saline alone.

[2] = tested on: wild-type strain 129 female mice; experiment: Determination of TRAP-positive cells (osteoclasts) after PTH treatment, wild-type mice; conditions: WT mice, PTH(+) group, 80 μg/kg s.c., 4 weeks
Experimental: After treatment with PTH, forefoot bone was excised from each animal. Each bone was rinsed with PBS, fixed for 7 days in 4% paraformaldehyde acid and decalcified for 3 days in 10% EDTA (pH 7.4), followed by dehydration and embedding in paraffin. Serial sections of 7 μm thickness were prepared from paraffin blocks and stained to measure TRAP (tartrate resistant acid phosphatase) activity, with Alcian blue for counter-staining. Among TRAP-positive cells attached to cancellous bone, those having at least three nuclei were counted using 15 serial sections of 7 μm thickness prepared from each bone. Each of the 15 sections was taken at five-section intervals from a total of 75 sections per bone. The number of multinucleated TRAP-positive cells in all 15 sections was summed to give the total number of osteoclasts per unit trabecular perimeter. Recombinant human PTH(1-34) (Bachem, Torrance, Calif.) was dissolved in acidified physiological saline supplemented with 0.1% bovine serum albumin (Sigma Chemical Co.-Aldrich, St. Louis, Mo.). The OPN-KO mice were subcutaneously administered with 80 μg/kg of body weight human PTH(1-34) for 4 weeks on a five-days-a-week basis. Mice in the control group were administered with physiological saline alone. The effect of PTH on bone metabolism was also examined in the same manner as shown in Example 1, using wild-type strain 129 female mice (7 weeks of age). […]

[3] = tested on: OPN knockout (OPN-KO) mice; experiment: BFR and MAR in cancellous bone (distal end of femur) after PTH treatment, OPN-KO mice
Experimental: (§3) BFR denotes bone formation rate per unit trabecular area (μm^3/μm^2/day).
(§4) MAR denotes the rate of increase in the distance between labeled calcified bands (μm/day).
In the case of cancellous bone, decalcified sagittal sections were prepared from the metaphyseal region and analyzed for BFR and MAR in a 1.4 mm^2 square area located 0.2 mm apart from the growth plate of the distal end of femur. Labeling was accomplished by subcutaneous administration of xylenol orange (100 mg/kg of body weight) 4 days before and calcein 2 days before sampling.
as §1, §2

[4] = tested on: wild-type strain 129 female mice; experiment: BFR and MAR in cancellous bone (distal end of femur) after PTH treatment, wild-type mice; conditions: WT mice
Experimental: BFR denotes bone formation rate per unit trabecular area (μm^3/μm^2/day). MAR denotes the rate of increase in the distance between labeled calcified bands (μm/day). In the case of cancellous bone, decalcified sagittal sections were prepared from the metaphyseal region and analyzed for BFR and MAR in a 1.4 mm^2 square area located 0.2 mm apart from the growth plate of the distal end of femur. Labeling was accomplished by subcutaneous administration of xylenol orange (100 mg/kg of body weight) 4 days before and calcein 2 days before sampling. Recombinant human PTH(1-34) (Bachem, Torrance, Calif.) was dissolved in acidified physiological saline supplemented with 0.1% bovine serum albumin (Sigma Chemical Co.-Aldrich, St. Louis, Mo.). The OPN-KO mice were subcutaneously administered with 80 μg/kg of body weight human PTH(1-34) for 4 weeks on a five-days-a-week basis. Mice in the control group were administered with physiological saline alone. The effect of PTH on bone metabolism was also examined in the same manner as shown in Example 1, using wild-type strain 129 female mice (7 weeks of age). These mice were divided into groups of 6 mice each.

[5] = tested on: OPN knockout (OPN-KO) mice; experiment: BFR and MAR in cortical bone (femoral mid-diaphysis) after PTH treatment, OPN-KO mice
Experimental: In the case of cortical bone, decalcified horizontal sections (serial sections of 3 μm thickness) were prepared from the femoral mid-diaphysis and analyzed for BFR and MAR in the periosteal and endosteal regions. More specifically, a calcium chelator calcein (4 mg/kg of body weight) was subcutaneously administered 9 days and 2 days before sampling and the interval between two labeled bands was determined under a fluorescence microscope to calculate BFR and MAR.
as §3, §4, §1, §2

[6] = tested on: wild-type strain 129 female mice; experiment: Determination of cortical bone thickness and area after PTH treatment, wild-type mice; conditions: WT mice, PTH(+) group, 80 μg/kg s.c., 4 weeks
Experimental: Horizontal sections were prepared from the femoral mid-diaphysis and tomographed using an X-ray microtomograph Musashi (Nittetsu-ELEX, Osaka, Japan). A Luzex-F automated image analysis system (Nireco, Tokyo, Japan) was then used for analysis of the image data to determine the thickness and area of cortical bone. The thickness was evaluated at the mean value averaged over 8 measurements every 45°. Recombinant human PTH(1-34) (Bachem, Torrance, Calif.) was dissolved in acidified physiological saline supplemented with 0.1% bovine serum albumin (Sigma Chemical Co.-Aldrich, St. Louis, Mo.). The OPN-KO mice were subcutaneously administered with 80 μg/kg of body weight human PTH(1-34) for 4 weeks on a five-days-a-week basis. Mice in the control group were administered with physiological saline alone. The effect of PTH on bone metabolism was also examined in the same manner as shown in Example 1, using wild-type strain 129 female mice (7 weeks of age). These mice were divided into groups of 6 mice each.

[7] = OPN-KO mice, PTH(+) group, 80 μg/kg s.c., 4 weeks, distal end of femur
[8] = OPN-KO mice, PTH(+) vs PTH(−) group, p<0.05
[9] = cancellous bone, OPN-KO vs WT mice, p<0.05
[10] = PTH(+) group, 80 μg/kg s.c., 4 weeks

Q: For human PTH(1-34), which “cancellous bone mass BV/TV” value [1] is on record?
A: Its value is 24.41±2.85%.

Q: And the “number of osteoclasts per unit trabecular perimeter of cancellous bone trabeculae” value [2]?
A: Its value is 9.2±1.8 cells/mm.

Q: What about the “BFR in cancellous bone” value [3, 7] of the same substance?
A: Its value is 2.68±0.34 μm^3/μm^2/day.

Q: What about the “MAR in cancellous bone” value [3, 7] of the same substance?
A: Its value is 6.21±1.11 μm/day.

Q: What about the “fold increase in cancellous BFR by PTH treatment” value [3, 8] of the same substance?
A: Its value is about 2.1 fold.

Q: And the “fold increase in cancellous MAR by PTH treatment” value [3, 8]?
A: The value was about 1.7 fold.

Q: What about the “elevation in the magnitude of PTH-induced increase in BFR caused by lack of OPN” value [3, 9] of the same substance?
A: The value was about 1.3 fold.

Q: What about the “elevation in the magnitude of PTH-induced increase in MAR caused by lack of OPN” value [3, 9] of the same substance?
A: The value was “about 1.4 fold”.

Q: What about the “BFR in cancellous bone” value [4, 10] of the same substance?
A: Its value is 1.85±0.08 μm^3/μm^2/day.

Q: And the “MAR in cancellous bone” value [4, 10]?
A: Its value is 4.84±0.21 μm/day.

Q: And the “fold increase in cancellous BFR by PTH treatment” value ([4]; PTH(+) vs PTH(−) group, p<0.05)?
A: Its value is “about 1.4 fold”.

Q: And the “fold increase in cancellous MAR by PTH treatment” value ([4]; PTH(+) vs PTH(−) group, p<0.05)?
A: The value was about 1.3 fold.

Q: What about the “endosteal BFR, cortical bone” value [5, 10] of the same substance?
A: The value was 0.62±0.09 μm^3/μm^2/day.

Q: And the “endosteal MAR, cortical bone” value [5, 10]?
A: Its value is 1.33±0.28 μm/day.

Q: And the “periosteal BFR (bone formation rate), cortical bone” value [5, 10]?
A: The value was 2.38±0.18 μm^3/μm^2/day.

Q: And the “periosteal MAR (mineral apposition rate), cortical bone” value [5, 10]?
A: The value was 2.97±0.25 μm/day.

Q: What about the “effect of PTH treatment on endosteal BFR and MAR” value ([5]; PTH(+) vs PTH(−) group) of the same substance?
A: Its value is “little effect”.

Q: What about the “fold increase in periosteal BFR by PTH treatment” value ([5]; PTH(+) vs PTH(−) group, p<0.05) of the same substance?
A: Its value is about 1.8 fold.

Q: And the “fold increase in periosteal MAR by PTH treatment” value ([5]; PTH(+) vs PTH(−) group, p<0.05)?
A: The value was about 1.2 fold.

Q: And the “area of cortical bone” value [6]?
A: The value was 0.69±0.03 mm^2.

Q: What about the “thickness of cortical bone” value [6] of the same substance?
A: The value was 0.20±0.01 mm.
